Each structure is given as a SMILES string.

The subject of data set [1] is B16F10 cultured mouse melanoma cells. The experiment in a line: Trypan blue exclusion assay after ICG labeling of melanoma cells. The format is cell-based. The note with it: staining 30 min at 37° C., 5% CO2; data not shown. The source says: B16F10 cultured mouse melanoma cells (ATCC, Rockville, Md.) were used in this experiment. The cells were maintained using standard procedures (Ara et al. 1990, Weight et al. 2006, Zharov et al. 2006), including serial passage in phenol-free RPMI 1640 medium (Invitrogen, Carlsbad, Calif.) supplemented with 10% fetal bovine serum (FBS, Invitrogen). For comparison to the detection of unlabelled melanoma cells, the endogenous cell absorption was increased by staining with ICG (Akorn Inc., USA), a strongly absorbent dye in the NIR range, for 30 min at 37° C. and in the presence of 5% CO2.

Data set [2] in a line: In vivo PAFC monitoring of Lymphazurin in blood circulation (ear microvessel) after tail vein injection. The note with it: 200 μl of 1% solution into tail vein; 50-μm ear microvessel; 650 nm. Set-up: species or system mouse. The source says: In this experiment, a prototype PAFC system was used to detect Lymphazurin circulating in the blood vessels of a mouse ear.
The prototype PAFC system was built on the platform of an Olympus BX51 microscope (Olympus America, Inc.) and a tunable optical parametric oscillator (OPO) pumped by a Nd:YAG laser (Lotis Ltd., Minsk, Belarus). […] Laser energy was directed to the blood vessels using a conventional lens, or an optical fiber. PA waves emitted by the cells were detected by ultrasound transducers (unfocused Panametrics model XMS-310, 10 MHz; focused cylindrical Panametrics model V312-SM, 10 MHz, focused lengths of 6 mm, 12 mm, and 55 mm; and customized resonance transducers), and the ultrasound transducer outputs were conditioned by an amplifier (Panametrics model 5662, bandwidth 50 kHz-5 MHz; Panametrics model 5678, bandwidth 50 kHz-40 MHz; customized amplifiers with adjustable high and low frequency boundaries in the range to 50-200 KHz and 1-20 MHz, respectively; resonance bandwidth of 0.3-1.0 MHz). The amplifier output signals were recorded with a Boxcar data acquisition system (Stanford Research Systems, Inc.) and a Tektronix TDS 3032B oscilloscope, and were analyzed using standard and customized software. […] The signals from the oscilloscope screen were recorded with a digital camera (Sony, Inc.) and video camera (JVC, Inc.). […]

For `CC1(C)C(/C=C/C=C/C=C/C=C2\N(CCCCS(=O)(=O)O)c3ccc4ccccc4c3C2(C)C)=[N+](CCCCS(=O)(=O)[O-])c2ccc3ccccc3c21` [ICG, Indocyanine Green], the toxicity after labeling entry in data set [1] was “No toxicity was observed”.

As for `CCN(CC)c1ccc(C(=C2C=CC(=[N+](CC)CC)C=C2)c2cc(S(=O)(=O)[O-])ccc2S(=O)(=O)[O-])cc1.[Na+]` [Lymphazurin, Isosulfan Blue], in data set [2], the “clearance of Lymphazurin from the blood” value worked out at 50 min.

The values are drawn from US10342430B2, “Device and method for in vivo noninvasive magnetic manipulation of circulating objects in bioflows” (BioVentures, LLC, priority 2007, dated 2019).
